In patent publication US20140186427A1, “ORODISPERSIBLE FILMS FOR THE MANUFACTURING OF INDIVIDUALISED MEDICINE OR FOR LARGE SCALE PRODUCTION” (TESA LABTEC GMBH, priority 2011, published 2014):
Where a name gives a salt, the structure may show the parent alone.

Experiments:
[1] = Solubility of the API in the ink (Klucel EX, brilliant blue, ethanol); type: physicochemical; details: brilliant blue and ethanol
Excerpt: The ingredients of the ink were Klucel® EX (hydroxypropylcellulose, Ashland, USA), brilliant blue and ethanol.

[2] = Recrystallisation after printing: polarised microscopy and X-ray diffraction; type: physicochemical; details: printed ODF
Excerpt: X-ray diffractograms were collected for the drug-free film, the APIs and the ODFs after the fourth printing process using […], Netherland). Polarised micrographs and scanning electron micrographs were collected for the drug-free film and the ODFs after the fourth printing process using a DMLB microscope (Leica Microsystems, Cambridge, UK) and a LEO 1430 VP (Leo Elektron Microscopy, Cambridge, UK).

| Solubility in the ink [1] | Recrystallisation / crystals after the printing process [2] | Compound |
| --- | --- | --- |
| forms an ink-suspension | – | CN1CC(=O)N2[C@H](c3ccc4c(c3)OCO4)c3[nH]c4ccccc4c3C[C@@H]2C1=O [Tadalafil] |
| soluble in the ink | did not recrystallise | C#CCN[C@@H]1CCc2ccccc21 [Rasagiline mesylate] |
